Experimental data as given in patent US20240287054A1, “COMPOUNDS THAT BIND NON-CANONICAL G-QUADRUPLEX STRUCTURES AND METHODS OF MAKING AND USING THE SAME” (The U.S.A., as Represented by the Secretary, Department of …, priority 2021, published 2024).

Experiments:
PIM1-form2 HP-G4 = test: FIA binding test with PIM1-form2 HP-G4 ((2+2) chair-type structure); settings: read-out: binding affinity, PIM1-form2 HP-G4
Protocol: In this study, FIA was used for validating the bindings between certain bivalent and MYCN G4 oligos. To measure the binding affinity, a solution of each compound was prepared in triplicate in a 96 well-plate (Costar, black side clear bottom), resulting in a final concentration of 100 nM (5% final DMSO in the working solution). Unlabeled MYCN G4 DNA was folded based on the above-mentioned annealing method, then added into the well plate resulting in different concentrations by a seral dilution. The plate was incubated at room temperature for 30 min, followed by centrifuging at 500 rpm for 2 minutes. The fluorescence intensity was then quantitatively recorded by a Synergy Mx microplate reader (BioTek) at Ex 340 nm/Em 500 nm. The fluorescence intensities were then normalized, and the binding affinity was calculated by fitting the curve using one-site total model in GraphPad Prism 8.3.1 software.
In addition to the DMS-footprinting study, the bivalent binding mode of compound B33 toward MYCN hairpin-G4 was also investigated by comparing HP-G4s with different folding types. Four reported HP-G4s with parallel structure (BCL2), (3+1) hybrid structure (HIV and PIM1-form1), and (2+2) chair-type structure (PIM1-form2) were examined by FIA binding test using compound B33 (FIGS. 41A, 41B, 42A, 42B, 43A, 43B, 44A, and 44B). […]

dsDNA = test: SPR binding to dsDNA; settings: up to 5 μM compound injection
MYCN G4 DNA with 10×tRNA = test: Fluorescence titration of MYCN G4 in presence/absence of excess tRNA; format: binding, human; settings: presence/absence of 10×tRNA
Protocol: 2-Aminopurine (2-AP) fluorescence titration. Fluorescence titrations based on 2-aminopurine labeling were performed using the protocol reported previously. Briefly, MYCN G4 oligonucleotide with a 2-AP substitution at either A11 or A18 position was annealed by heating the sample to 95° C. for 5 min and cooling down to RT slowly. The oligonucleotide with folded structure was diluted to 10 μM in Tris buffer (10 mM Tris, pH7.0, 100 mM KCl, 0.005% Tween 20) and prepared in a black 96-well plate (Costar) in triplicate as designed. Small molecules were diluted in DMSO to obtain a series of solutions with concentrations ranging from 0.1 to 5 mM, and then diluted by 20 times added into the plate (5% DMSO final concentration). The final concentration of 2-AP DNA was 1 μM in the well plate. To obtain the background fluorescence, small molecule solutions without DNA were also prepared in the same plate. After incubation for 30 min at RT, the plate was briefly centrifuged and scanned in Synergy Mx microplate reader (BioTek) with Ex 310 nm/Em 365 nm. Fluorescence signals were calculated by averaging the intensities in triplicate wells after subtracting the references. Finally, the binding signals were normalized and the KD value was determined by fitting the curve using a nonlinear sigmoidal dose-response model with a variable slope in GraphPad Prism 8.3.1 software.

MYCN G4 DNA = test: SPR competitive binding assay on MYCN G4; parameters: species or system human
Protocol: Based on this unexpected observation, and without being bound to a single theory, it currently is believed that the two compounds might bind to MYCN G4 on different sites. To investigate, a competitive assay on SPR was performed by injecting the compounds step-wise in a designated order or injecting a mixture (Brooks et al., Drug Discovery Today 2014, 19:1040-1044; Spurny et al., PNAS 112:E2543-2552). […] Next, TMPyP4, a classical stacking G4-binder (Seenisamy, JACS 2004, 126:8702-8709), was also tested together with MY-1. […] In addition, a CD melting assay was also performed using either MY-1 or a mixture of two hits (1 and MY-1).

MYCN mRNA = test: qRT-PCR of MYCN mRNA in NBEB cells; format: cell-based; settings: NBEB cells, 24, 36, 48 h, higher concentrations
Protocol: (§1) To examine the effects of G4-binding compounds on NBEB cells, live-cell imaging was performed using an Incucyte interface (described below). NBEB (5K/well), cells were seeded into 96-well plates in triplicate, treated with compound MY-8 at various concentrations (0-45 μM), and cultured until control wells reached confluence. For RT-qPCR and western blotting, NBEB (300K) cells were treated with MY-8 in 6-well dish for 48 h. To examine the time-dependent decrease in MYCNOs expression, cells were treated with 22.5 μM and 45 μM MY-8 and analyzed at various times (0, 4, 24, 48, 72 and 96 h). To validate cell viability, a Trypan Blue exclusion test was performed following treatment at 48 h and 96 h post treatment and the proportion of live versus dead cells was calculated using a hemocytometer.
Quantitative RT-PCR. Total RNA was extracted from NBEB cells according to manufacturer's instructions (RNeasy Plus Mini Extraction kit (#74134) (Qiagen, CA). RNA (1 μg) was reverse transcribed into cDNA using the cDNA synthesis High-Capacity RNA-to-cDNA™ Kit. Quantitative PCR was performed using Fast SYBR™ Green Master Mix according to the manufacturer's protocol. Beta-actin was used as a housekeeping gene. Relative expression was calculated using the 2(−ΔCt) method. The qPCR primer sequences can be found in supplementary materials.

N-Myc protein = test: Western blot of N-Myc protein in NBEB cells; format: cell-based; settings: 48 h, Western blotting
Protocol: as §1
Protein assay. Forty-eight hours post-MY-8 treatment in 6-well plates, single copy MYCN cells were lysed directly in the plate with Radioimmunoprecipitation assay buffer (Beyotime, China), pelleted, and chilled at −80° C. […] Total protein concentrations were determined using a Bradford Assay using the Bradford reagent (Beyotime, China). […] Chemiluminescent signal was detected using Clarity™ Western ECL Substrate (Bio-Rad, USA) or Supersignal™ West Femto Maximum Sensitivity Substrate (ThermoFisher Scientific, USA) with a ChemiDoc gel imaging system (Bio-Rad, USA).

In the case of `COc1ccc(-c2noc(-c3ccc(NCCCNc4c5ccc(Cl)cc5nc5ccc(OC)cc45)nn3)n2)cc1` [B33, N^1-(6-chloro-2-methoxyacridin-9-yl)-N^3-(6-(3-(4-methoxyphenyl)-1,2,4-oxadiazol-5-yl)pyridazin-3-yl)propane-1,3-diamine], the Kd (PIM1-form2 HP-G4) is reported as 1100 ± 400 nM and the “binding to dsDNA on SPR” value (dsDNA) is reported as “did not show any binding to dsDNA”.
`CCCN1CCN(c2nnc(-n3cccc3CNCCCN3CCCCCC3)s2)CC1` [Compound 1] was tested, and the “effect of excess tRNA on binding affinity” value (MYCN G4 DNA with 10×tRNA) was “no effect”.
`COc1ccc(-c2noc(-c3ccc(NCCCN4CCCC4)nn3)n2)cc1` [MY-1, 6-(3-(4-methoxyphenyl)-1,2,4-oxadiazol-5-yl)-N-(3-(pyrrolidin-1-yl)propyl)pyridazin-3-amine] was tested, and the “effect of excess tRNA on binding affinity” value (MYCN G4 DNA with 10×tRNA) was “no effect”, the “binding level of MY-1 after injection of 1” value (MYCN G4 DNA; 100 μM of 1 followed by 100 μM of MY-1, also 500 μM of 1) was “not significantly changed” and the “SPR binding signal on addition of MY-1 to TMPyP4 solution” value (MYCN G4 DNA; MY-1 100 μM and 250 μM in TMPyP4 solution) was “increase of SPR binding signals”.
For `COc1ccc(-c2noc(-c3ccc(NCCCN4CCCCCC4)nn3)n2)cc1` [MY-8, N-(3-(azepan-1-yl)propyl)-6-(3-(4-methoxyphenyl)-1,2,4-oxadiazol-5-yl)pyridazin-3-amine], the “MYCN mRNA level” value (MYCN mRNA) was “clear decreases of mRNA level” and the “levels of N-Myc protein” value (N-Myc protein) was “decreased upon treatment with MY-8 in a dose-dependent fashion”.
